We go through three compounds from US20240423980A1, “METHODS OF PREVENTING A VENOUS THROMBOEMBOLIC EVENT” (Board of Supervisors of Louisiana State University and …, priority 2023, published 2024).

Data set [1] concerns patients with mild-to-moderate COPD. The note with it: cited from earlier work.
Data set [2] deals with Src family of protein tyrosine kinases. The following applies: cited from earlier work.
The target of the next data set is Src (Mus musculus, UniProt P05480). The note with it: in vivo dose of 1.5 mg/kg; cited from earlier work.
The target of another data set is T1, ITGA9-VCAM1 binding (Homo sapiens, UniProt Q13797).
T1 construct: purchased R&D Systems
The experiment in a line: ITGA9 binding assay (ITGA9-VCAM1 binding, cell-free). Here is the method: Turning next to FIG. 2, another aspect of the invention is shown as a ITGA9 binding assay. Briefly, purified human VCAM1 (R&D Systems) diluted to 5 μg/ml in TBS+ buffer (25 mM Tris pH 7.4, 137 mM NaCl, 2.7 mM KCl, 1 mM CaCl2, 1 Mm MgCl2, 1 mM MnC12) was added to wells of a 96-well transparent microtiter plate and incubated overnight at 4° C. Wells were washed 3 times with buffer and blocking buffer (TBS+ with 1% bovine serum albumin) was added followed by incubation for 1 hour at 37° C., and then washing. Recombinant human integrin ITGA9 (R&D Systems) was diluted to 1 μg/ml in TBS+/0.1% bovine serum albumin. Macitentan was diluted into the integrin solution and added to the washed ligand-coated plate according to a standard template with each sample repeated in triplicate. After incubation for 2 hours at room temperature, the plate was washed 3 times with 150 μl TBS+ buffer. To each well, biotinylated anti-β1 (catalog BAF1778, R&D Systems) at 1 μg/ml in TBS+/0.1% BSA was added, and the plate covered and incubated for 1 hour at RT. After washing the plate 3 times with TBS+ buffer, streptavidin conjugated horseradish peroxidase (R&D Systems) diluted in TBS+ blocking buffer was added to the wells and the plate incubated for 20 minutes at room temperature. […] After incubation for 20 minutes at RT, plates were read by colorimetric detection at 450 nm wavelength. […]

The next data set has as its system wild-type mice. The experiment in a line: In vivo venous thrombosis using IVC stenosis (DVT surgery). Also on record: species or system mouse. The note with it: 10 mg/kg; measured at 24-hr; vs vehicle; FIG. 3. On the procedure: Next, we performed in vivo venous thrombosis using IVC stenosis (DVT surgery) in 30 wild-type mice and randomized them into control (vehicle, n=15) and treatment (Macitentan, 10 mg/kg, n=15) groups. The thrombus weight and incidence were measured at 24-hr.

A further data set deals with mice with lung cancer. Put plainly: IVC stenosis DVT in mice with lung cancer (LLC1 cells). It counts as in vivo, mouse. The note with it: thrombus harvested 48-hour post-stenosis, FIG. 23. On the procedure:
Lewis lung carcinoma (LLC1) cell line will be obtained from American Type Culture Collection (ATCC). The cell line was originally derived from a Lewis lung carcinoma of a C57BL mouse strain. The cells will be grown in Dulbecco's Modified Eagle Medium (DMEM) supplemented with 10% FCS, 2 mM L-glutamine, 100 U/ml penicillin, 100 μg/ml streptomycin, and 0.1% fungizone. The cells will be maintained at 37° C. in a humidified atmosphere with 5% CO2. The LLC1 cells (100 μL) will be injected once intravenously.
Macitentan at the dose of 2, 5 and 10 mg/kg will be administered orally once a day from the day of cancer induction until the end of the study.
Deep vein thrombosis (DVT) will be induced in mice after 14 days of tumor induction. Briefly, anesthetized mice will undergo laparotomy, the intestine will be exteriorized, and the intra renal IVC will be exposed. The IVC will then be dissected away from the aorta. For stenosis, IVC will be exposed, a space holder (30-gauge, 3-mm long needle) will be positioned on the outside of the vessel, and a permanent narrowing ligature will be placed exactly below the left renal vein. Subsequently, the needle will be removed to restrict blood flow to 80-90%. […]
Thrombus size and thrombosis incidence on day 1 and day 2 following DVT surgery will be evaluated by ultrasonography. […]

T1 sequence (Q13797 30-981 limits assumed): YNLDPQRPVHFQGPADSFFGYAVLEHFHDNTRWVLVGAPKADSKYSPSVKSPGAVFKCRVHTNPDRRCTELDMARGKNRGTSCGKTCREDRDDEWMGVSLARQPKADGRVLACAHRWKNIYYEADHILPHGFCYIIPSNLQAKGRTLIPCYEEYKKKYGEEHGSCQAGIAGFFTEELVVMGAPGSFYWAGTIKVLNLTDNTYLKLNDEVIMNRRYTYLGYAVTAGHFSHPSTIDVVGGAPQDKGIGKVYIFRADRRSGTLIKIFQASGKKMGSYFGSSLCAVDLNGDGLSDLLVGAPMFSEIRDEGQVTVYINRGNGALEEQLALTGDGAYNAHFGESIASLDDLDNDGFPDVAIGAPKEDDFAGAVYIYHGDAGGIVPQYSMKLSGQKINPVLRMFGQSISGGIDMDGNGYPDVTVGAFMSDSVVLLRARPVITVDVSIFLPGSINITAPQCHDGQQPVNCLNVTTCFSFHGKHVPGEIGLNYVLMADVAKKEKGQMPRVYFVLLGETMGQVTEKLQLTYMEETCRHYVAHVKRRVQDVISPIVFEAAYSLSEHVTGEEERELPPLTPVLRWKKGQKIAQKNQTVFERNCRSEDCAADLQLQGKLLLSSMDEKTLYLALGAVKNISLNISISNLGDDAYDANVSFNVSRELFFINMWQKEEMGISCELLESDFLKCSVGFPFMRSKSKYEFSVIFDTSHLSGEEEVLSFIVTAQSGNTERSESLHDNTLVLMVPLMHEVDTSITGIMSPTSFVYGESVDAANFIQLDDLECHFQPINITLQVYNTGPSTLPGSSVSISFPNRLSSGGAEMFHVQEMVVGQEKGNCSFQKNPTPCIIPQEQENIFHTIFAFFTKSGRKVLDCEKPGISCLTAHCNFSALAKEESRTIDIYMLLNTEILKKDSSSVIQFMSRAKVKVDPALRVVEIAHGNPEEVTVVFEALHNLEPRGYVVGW
T1 sequence (P05556 21-728 partner limits assumed): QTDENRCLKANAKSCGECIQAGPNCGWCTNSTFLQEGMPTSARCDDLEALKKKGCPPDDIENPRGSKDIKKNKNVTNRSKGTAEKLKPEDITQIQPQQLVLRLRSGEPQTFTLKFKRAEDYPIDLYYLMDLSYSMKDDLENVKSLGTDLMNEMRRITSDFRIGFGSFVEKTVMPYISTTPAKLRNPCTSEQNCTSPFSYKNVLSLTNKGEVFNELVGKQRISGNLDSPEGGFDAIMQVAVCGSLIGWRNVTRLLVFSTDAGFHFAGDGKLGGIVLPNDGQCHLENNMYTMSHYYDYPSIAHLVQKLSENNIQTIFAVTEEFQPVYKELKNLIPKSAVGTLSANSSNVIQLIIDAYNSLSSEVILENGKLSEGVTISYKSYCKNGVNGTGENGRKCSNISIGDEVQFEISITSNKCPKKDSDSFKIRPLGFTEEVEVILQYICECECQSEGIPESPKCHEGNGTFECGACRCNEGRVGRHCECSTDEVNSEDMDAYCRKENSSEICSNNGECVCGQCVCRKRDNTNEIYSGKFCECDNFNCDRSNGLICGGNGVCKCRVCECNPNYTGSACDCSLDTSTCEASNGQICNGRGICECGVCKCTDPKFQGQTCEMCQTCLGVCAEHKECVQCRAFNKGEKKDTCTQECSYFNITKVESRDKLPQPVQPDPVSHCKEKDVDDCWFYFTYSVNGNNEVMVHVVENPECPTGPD
Src, sequence (P05480 whole entry): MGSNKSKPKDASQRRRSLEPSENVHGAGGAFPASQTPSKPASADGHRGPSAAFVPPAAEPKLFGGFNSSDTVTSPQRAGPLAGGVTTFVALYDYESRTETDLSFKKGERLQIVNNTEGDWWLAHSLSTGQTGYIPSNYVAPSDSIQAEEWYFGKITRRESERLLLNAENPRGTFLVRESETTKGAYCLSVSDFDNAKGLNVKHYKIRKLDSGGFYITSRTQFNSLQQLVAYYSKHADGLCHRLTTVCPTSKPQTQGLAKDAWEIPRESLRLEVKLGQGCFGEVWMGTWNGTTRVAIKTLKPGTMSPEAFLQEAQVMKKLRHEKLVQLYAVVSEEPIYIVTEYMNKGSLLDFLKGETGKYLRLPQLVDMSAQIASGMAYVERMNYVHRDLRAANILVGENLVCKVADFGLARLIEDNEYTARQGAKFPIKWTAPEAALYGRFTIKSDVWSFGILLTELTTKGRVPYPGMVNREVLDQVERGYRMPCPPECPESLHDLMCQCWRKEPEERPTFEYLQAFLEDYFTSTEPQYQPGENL

Take `Cc1c(F)cccc1NC(=O)Nc1ccc(Cl)c(S(=O)(=O)[C@H]2CCCNC2)c1O` [Danirixin]: the number of pneumonias entry in data set [1] (danirixin 50 mg) was “increased number of pneumonias”. Besides, in data set [1] (danirixin-treated groups, COPD patients), the incidence of exacerbation entry is reported as “increased incidence of exacerbation”.
One may read the IC50 as the concentration that gives 50% inhibition. With `Cc1ccc(-c2nn(C(C)(C)C)c3ncnc(N)c23)cc1` [PP1], the concentration for half-maximal inhibition (IC50) in data set [2] is 170 nM. For the same compound, the “inhibition of Src in vivo” value on Src was “significant inhibition”.
Regarding `CCCNS(=O)(=O)Nc1ncnc(OCCOc2ncc(Br)cn2)c1-c1ccc(Br)cc1` [Macitentan], the “binds to integrin α9 and inhibits its interactions with VCAM-1” value on ITGA9-VCAM1 binding is given as “inhibits its interactions with VCAM-1”. The “inhibition of ITGA9-VCAM1 binding” value at ITGA9-VCAM1 binding (Macitentan at 1 μM, FIG. 2) was “significantly inhibited”. In the data set on wild-type mice, the thrombosis incidence entry is listed as “significantly reduced” and the thrombus weight entry was “significantly reduced”. Also, the “DVT severity (IVC thrombus weight)” value with mice with lung cancer is listed as “significantly reduced”.
